Here are results for eleven compounds from ChEMBL document CHEMBL1158340, “Organoiodine (III)-mediated synthesis of 3-aryl/heteroaryl-5,7-dimethyl-1,2,4-triazolo[4,3-c]pyrimidines as antibacterial agents” (2009).

Common to all, as to assay type: functional
The subject of experiment [1] is Escherichia coli. The experiment is described as follows: Antibacterial activity against Escherichia coli MTCC 51 at 50 ug/mL by agar well diffusion method. To be noted: for zone of inhibition at 50 µg/mL: read-out: DIZ.
Experiment [2] deals with Geobacillus stearothermophilus. The experiment is described as follows: Antibacterial activity against Bacillus stearothermophilus MTCC 8508 at 50 ug/mL by agar well diffusion method. As to conditions: for zone of inhibition at 50 µg/mL: read-out: DIZ.
In experiment [3] the test system is Geobacillus stearothermophilus. Nature of the experiment: Antibacterial activity against Bacillus stearothermophilus MTCC 8508 at 10 ug/mL by agar well diffusion method. As to conditions: for zone of inhibition at 10 µg/mL: read-out: DIZ.
Experiment [4] has as its system Pseudomonas putida. Nature of the experiment: Antibacterial activity against Pseudomonas putida MTCC 121 after 24 hrs. To be noted: MTCC 121, 24 h.
For experiment [5], the system named is Pseudomonas putida. Nature of the experiment: Antibacterial activity against Pseudomonas putida MTCC 121 at 50 ug/mL by agar well diffusion method. To be noted: read-out: DIZ.
Experiment [6] deals with Escherichia coli. Nature of the experiment: Antibacterial activity against Escherichia coli MTCC 51 after 24 hrs. To be noted: MTCC 51, 24 h.
The subject of experiment [7] is Bacillus subtilis. Nature of the experiment: Antibacterial activity against Bacillus subtilis MTCC 8509 at 10 ug/mL by agar well diffusion method. To be noted: for zone of inhibition at 10 µg/mL: read-out: DIZ.
Experiment [8] relates to Bacillus subtilis. The experiment is described as follows: Antibacterial activity against Bacillus subtilis MTCC 8509 after 24 hrs. As to conditions: MTCC 8509, 24 h.
In experiment [9] the test system is Pseudomonas putida. Nature of the experiment: Antibacterial activity against Pseudomonas putida MTCC 121 at 10 ug/mL by agar well diffusion method. To be noted: for zone of inhibition at 10 µg/mL: read-out: DIZ.
The subject of experiment [10] is Geobacillus stearothermophilus. Nature of the experiment: Antibacterial activity against Bacillus stearothermophilus MTCC 8508 after 24 hrs. As to conditions: MTCC 8508, 24 h.
Experiment [11] relates to Pseudomonas putida. Nature of the experiment: Antibacterial activity against Pseudomonas putida MTCC 121 at 100 ug/mL by agar well diffusion method. As to conditions: read-out: DIZ.
For experiment [12], the system named is Bacillus subtilis. Nature of the experiment: Antibacterial activity against Bacillus subtilis MTCC 8509 at 50 ug/mL by agar well diffusion method. As to conditions: for zone of inhibition at 50 µg/mL: read-out: DIZ.
The subject of experiment [13] is Escherichia coli. Nature of the experiment: Antibacterial activity against Escherichia coli MTCC 51 at 10 ug/mL by agar well diffusion method. As to conditions: for zone of inhibition at 10 µg/mL: read-out: DIZ.
Experiment [14] concerns Geobacillus stearothermophilus. Nature of the experiment: Antibacterial activity against Bacillus stearothermophilus MTCC 8508 at 100 ug/mL by agar well diffusion method. To be noted: read-out: DIZ.
The test system of experiment [15] is Escherichia coli. The experiment is described as follows: Antibacterial activity against Escherichia coli MTCC 51 at 100 ug/mL by agar well diffusion method. As to conditions: read-out: DIZ.
Experiment [16] concerns Bacillus subtilis. Nature of the experiment: Antibacterial activity against Bacillus subtilis MTCC 8509 at 100 ug/mL by agar well diffusion method. To be noted: read-out: DIZ.

Values after ≈ are worked out from the molar mass of the structure shown. Active and inactive are the calls of the source. The calls are words filed in the database; no cut-off is given here.

Regarding `Cc1cc2nnc(-c3cccs3)n2c(C)n1`, the zone of inhibition at 50 µg/mL in [1] was 18.7 mm; in experiment [2], 16.7 mm; in [5], 8.33 mm; in experiment [12], 8.34 mm. Further, the zone of inhibition at 10 µg/mL in experiment [3] amounted to 9.74 mm; in experiment [13], 10.3 mm. Moreover, the MIC was above 250 µg/mL in experiment [4], 64 µg/mL (≈ 278 µM) in [6], above 250 µg/mL in [8] and 64 µg/mL (≈ 278 µM) in experiment [10]. Further, the outcome in [7] and in experiment [9] was inactive. Moreover, the zone of inhibition at 100 µg/mL in experiment [11] is 12.3 mm; in [14] it was 25.7 mm; in [15] it was 26.3 mm; in experiment [16], 13.7 mm.

On to `CN[C@@H]1[C@H](O[C@H]2[C@H](O[C@H]3[C@H](O)[C@@H](O)[C@H](N=C(N)N)[C@@H](O)[C@@H]3N=C(N)N)O[C@@H](C)[C@]2(O)C=O)O[C@@H](CO)[C@H](O)[C@H]1O` [STREPTOMYCIN], for which the zone of inhibition at 50 µg/mL in experiment [1] came to 49.4 mm; in experiment [2], 49.2 mm; in [5] it was 48.2 mm; in experiment [12], 57.4 mm. Moreover, the zone of inhibition at 10 µg/mL in experiment [3] is 33.2 mm; in [7], 36.4 mm; in experiment [9], 38.2 mm; in experiment [13], 26.4 mm. Also, the MIC in [4] was determined as 4 µg/mL (≈ 6.88 µM); in experiment [6], 4 µg/mL (≈ 6.88 µM); in [8] it was 2 µg/mL (≈ 3.44 µM); in experiment [10], 2 µg/mL (≈ 3.44 µM). Also, the zone of inhibition at 100 µg/mL in experiment [11] was 72.2 mm; in experiment [14], 67.2 mm; in [15], 69.4 mm; in experiment [16] it was 73.2 mm.

With `COc1cc(O)ccc1-c1nnc2cc(C)nc(C)n12`, the zone of inhibition at 50 µg/mL in experiment [1] stood at 46.3 mm; in experiment [2] it was 46.7 mm; in [5], 49.3 mm; in [12] it was 42.7 mm. The zone of inhibition at 10 µg/mL in experiment [3] came to 30.7 mm; in experiment [7], 27.3 mm; in experiment [9] it was 32.7 mm; in experiment [13], 29.3 mm. For the same compound, the MIC is 2 µg/mL (≈ 7.4 µM) in experiment [4], 4 µg/mL (≈ 14.8 µM) in experiment [6], 8 µg/mL (≈ 29.6 µM) in [8] and 4 µg/mL (≈ 14.8 µM) in [10]. Besides, the zone of inhibition at 100 µg/mL was found to be 72.7 mm in [11], 66.3 mm in experiment [14], 66.7 mm in experiment [15] and 61.7 mm in experiment [16].

In the case of `Cc1cc2nnc(-c3ccc(F)cc3)n2c(C)n1`, the zone of inhibition at 50 µg/mL turned out to be 14.3 mm in experiment [1], 23.4 mm in [2], 15.3 mm in experiment [5] and 22.3 mm in experiment [12]. The zone of inhibition at 10 µg/mL in experiment [3] was determined as 10.1 mm; in [7], 13.7 mm; in experiment [9] it was 9.67 mm; in [13] it was 11.3 mm. Further, the MIC stood at 32 µg/mL (≈ 132 µM) in [4], 32 µg/mL (≈ 132 µM) in experiment [6], 16 µg/mL (≈ 66 µM) in [8] and 16 µg/mL (≈ 66 µM) in [10]. The zone of inhibition at 100 µg/mL in [11] stood at 23.2 mm; in experiment [14], 41.8 mm; in experiment [15], 26.4 mm; in [16], 41.7 mm.

Turning to `Cc1cc2nnc(-c3ccccc3)n2c(C)n1`, the result in experiment [1], in experiment [2], in experiment [3], in experiment [7], in experiment [9] and in experiment [13] was inactive. Also, the MIC in experiment [4], in [6], in [8] and in experiment [10] was above 250 µg/mL in each case. For the same compound, the results for the zone of inhibition at 50 µg/mL in experiment [5] and in experiment [12] were 8.33 mm and 8.34 mm, respectively. In addition, the zone of inhibition at 100 µg/mL in experiment [11] was 12.7 mm; in experiment [14], 10.7 mm; in [15], 11.3 mm; in experiment [16], 13.3 mm.

As for `COc1ccc(-c2nnc3cc(C)nc(C)n23)cc1`, the zone of inhibition at 50 µg/mL turned out to be 21.3 mm in experiment [1], 20.7 mm in [2], 20.3 mm in experiment [5] and 39.7 mm in experiment [12]. Moreover, the zone of inhibition at 10 µg/mL in experiment [3] worked out at 12.3 mm; in experiment [7] it was 27.3 mm; in [9], 11.7 mm; in experiment [13], 12.3 mm. In addition, the MIC in experiment [4] was 16 µg/mL (≈ 62.9 µM); in experiment [6], 16 µg/mL (≈ 62.9 µM); in experiment [8], 8 µg/mL (≈ 31.5 µM); in experiment [10] it was 16 µg/mL (≈ 62.9 µM). For the same compound, the zone of inhibition at 100 µg/mL in experiment [11] is 40.7 mm; in [14] it was 41.3 mm; in experiment [15], 40.7 mm; in [16], 59.7 mm.

Turning to `Cc1cc2nnc(-c3ccc(Cl)cc3Cl)n2c(C)n1`, the zone of inhibition at 50 µg/mL in [1] is 63.7 mm; in experiment [2], 48.3 mm; in experiment [5], 49.7 mm; in experiment [12], 47.7 mm. Further, the zone of inhibition at 10 µg/mL was found to be 29.7 mm in experiment [3], 30.7 mm in [7], 29.3 mm in experiment [9] and 37.3 mm in experiment [13]. Also, the MIC in [4] is 4 µg/mL (≈ 13.6 µM); in [6], 1 µg/mL (≈ 3.41 µM); in [8] it was 4 µg/mL (≈ 13.6 µM); in experiment [10], 4 µg/mL (≈ 13.6 µM). Besides, the zone of inhibition at 100 µg/mL in experiment [11] turned out to be 67.7 mm; in experiment [14] it was 66.3 mm; in experiment [15] it was 75.3 mm; in experiment [16], 67.3 mm.

Turning to `Cc1cc2nnc(-c3ccc(Cl)cc3)n2c(C)n1`, the result in experiment [1], in [3], in experiment [7], in experiment [9], in experiment [12] and in experiment [13] was inactive. For the same compound, the zone of inhibition at 50 µg/mL in experiment [2] was found to be 11.8 mm; in experiment [5], 8.33 mm. Besides, the MIC in experiment [4] is above 250 µg/mL; in experiment [6], above 250 µg/mL; in experiment [8] it was above 250 µg/mL; in experiment [10], 125 µg/mL (≈ 483 µM). Further, the zone of inhibition at 100 µg/mL in experiment [11] was determined as 14.6 mm; in [14] it was 18.7 mm; in experiment [15], 10.7 mm; in experiment [16], 11.3 mm.

Consider `COc1ccc(OC)c(-c2nnc3cc(C)nc(C)n23)c1`, for which the zone of inhibition at 50 µg/mL stood at 10.7 mm in experiment [1], 8.33 mm in experiment [2] and 9.66 mm in [5]. The outcome in experiment [3], in [7], in [9], in experiment [12] and in experiment [13] was inactive. Moreover, the minimum inhibitory concentration (MIC) in experiment [4] is above 250 µg/mL; in experiment [6], 125 µg/mL (≈ 440 µM); in [8], above 250 µg/mL; in [10], above 250 µg/mL. The zone of inhibition at 100 µg/mL turned out to be 13.7 mm in experiment [11], 13.7 mm in experiment [14], 19.3 mm in experiment [15] and 11.3 mm in [16].

In the case of `Cc1cc2nnc(-c3cccnc3)n2c(C)n1`, the zone of inhibition at 50 µg/mL in experiment [1] came out at 39.3 mm; in [2], 39.7 mm; in [5], 59.3 mm; in [12], 46.3 mm. Further, the zone of inhibition at 10 µg/mL turned out to be 25.3 mm in experiment [3], 29.3 mm in experiment [7], 36.7 mm in [9] and 25.7 mm in experiment [13]. The MIC turned out to be 2 µg/mL (≈ 8.88 µM) in experiment [4], 8 µg/mL (≈ 35.5 µM) in experiment [6], 4 µg/mL (≈ 17.8 µM) in experiment [8] and 8 µg/mL (≈ 35.5 µM) in experiment [10]. Further, the zone of inhibition at 100 µg/mL in experiment [11] amounted to 69.7 mm; in experiment [14], 56.3 mm; in experiment [15] it was 57.3 mm; in [16], 65.7 mm.

With `Cc1cc2nnc(-c3ccc(Br)cc3)n2c(C)n1`, the zone of inhibition at 50 µg/mL in experiment [1] was 31.7 mm; in experiment [2], 41.7 mm; in [5], 48.7 mm; in [12], 40.7 mm. Besides, the zone of inhibition at 10 µg/mL was 26.7 mm in experiment [3], 27.7 mm in experiment [7], 28.3 mm in experiment [9] and 23.3 mm in experiment [13]. For the same compound, the MIC in experiment [4] was determined as 4 µg/mL (≈ 13.2 µM); in [6], 16 µg/mL (≈ 52.8 µM); in experiment [8], 8 µg/mL (≈ 26.4 µM); in experiment [10], 8 µg/mL (≈ 26.4 µM). In addition, the zone of inhibition at 100 µg/mL in experiment [11] is 66.7 mm; in [14], 60.7 mm; in experiment [15] it was 47.3 mm; in [16], 59.3 mm.
